Data taken from US5206428A, “Tetrahydronaphthalene derivatives and preparation thereof” (Tanabe Seiyaku Co., Ltd., priority 1989, dated 1993).
In brackets after ≈: the same amount, converted by molar mass.

Tested on: U-46619-induced platelet aggregation
Test: U-46619-induced platelet aggregation-inhibiting activity (in vitro)
Type: cell-based
Details: human platelet-rich plasma, 4×10^5 cells/mm^3, U-46619 solution (0.2 μg/ml), 37° C., Born's method
Procedure: The bottom layer was further centrifuged to give platelet-poor plasma ("PPP") as the supernatant. PRP was diluted with PPP so that the platelet count was 4×10^5 cells/mm^3. 25 μl of a test compound solution was added to 200 μl of said diluted PRP.

Structure (SMILES): Cc1ccc(S(=O)(=O)NC2CCc3cc(CC(=O)NCCC(=O)O)ccc3C2)cc1 (stereo not drawn) [Compound No. 1]
- IC50: 0.2 µg/mL (≈ 0.465 µM)

Structure (SMILES): O=C([O-])Cc1ccc2c(c1)CCC(NS(=O)(=O)c1ccc(Cl)cc1)C2.[Na+] (stereo not drawn) [Compound No. 2, Sodium 6(4-chlorophenyl)sulfonylamino-5,6,7,8-tetrahydronaphthalene-2-acetate]
- IC50: 0.06 µg/mL

Structure (SMILES): O=C(O)CCCNC(=O)Cc1ccc2c(c1)CCC(NS(=O)(=O)c1ccc(Cl)cc1)C2 (stereo not drawn) [Compound No. 3]
- IC50: 0.7 µg/mL (≈ 1.51 µM)
